Experimental data: EPA's ToxValDB 9.5
Where “and” joins values, the source holds several entries; their conditions need not be identical. Equal values may be shown once. Each block holds one molecule with its values, some of them ahead of it.

Tested on: Rattus norvegicus
[1] = reproduction developmental, duration: 9 days, inhalation, F, Crl:CD(SD) BR, generation: P0, P0: Whole Body: Maternal Body Weight Change
[2] = reproduction developmental, duration: 9 days, inhalation, F, Sprague-Dawley, generation: P0, P0: General Toxicity: Whole Body: Clinical Observations + P0: General Toxicity: Whole Body: Maternal Body Weight Change
[3] = short-term, duration: 4 weeks, inhalation, F, Wistar, Multi-organ: Inorganic Phosphorous (PHOS), Blood
[4] = short-term, duration: 4 weeks, inhalation, M, Wistar, Blood: Partial Thromboplastin Time (PTT) + Liver: Cytoplasmic Vacuolation, Fatty Hepatocellular
[5] = subchronic, duration: 90 days, inhalation, F, RccHan (Wist), Blood: Large Unstained Cells + Blood: Lymphocyte + Blood: Monocytes
[6] = subchronic, duration: 90 days, inhalation, F, Wistar, General Toxicity: Whole Body: Body Weight Change + Immune: Blood: Large Unstained Cells + Immune: Blood: Lymphocyte + Immune: Blood: …
[7] = subchronic, duration: 90 days, inhalation, F, Wistar, Immune: Blood: Large Unstained Cells + Immune: Blood: Lymphocyte + Immune: Blood: Monocytes + Immune: Blood: White Blood Cell (WBC)
[8] = subchronic, duration: 90 days, inhalation, M/F, Wistar, Immune: Blood: Basophils + Immune: Blood: Eosinophils + Immune: Blood: Neutrophils
[9] = subchronic, duration: 90 days, inhalation, M, RccHan (Wist), Blood: Lymphocyte + Blood: Monocytes + Blood: White Blood Cell (WBC)
[10] = subchronic, duration: 90 days, inhalation, M, Wistar, General Toxicity: Whole Body: Body Weight Change + Immune: Blood: Large Unstained Cells + Immune: Blood: Lymphocyte + Immune: Blood: …
[11] = subchronic, duration: 90 days, inhalation, M, Wistar, Immune: Blood: Large Unstained Cells + Immune: Blood: Lymphocyte + Immune: Blood: Monocytes + Immune: Blood: White Blood Cell (WBC)
[12] = reproduction developmental, duration: 28 days, inhalation, M, Sprague-Dawley, generation: P0, P0: Other Systems: Bone: Bone Histopathology + P0: Other Systems: Esophagus: Esophagus Histopathology + P0: Other Systems: Eye: Eye …
[13] = reproduction developmental, duration: 50 days, inhalation, F, Sprague-Dawley, generation: P0, P0: Other Systems: Bone: Bone Histopathology + P0: Other Systems: Esophagus: Esophagus Histopathology + P0: Other Systems: Eye: Eye …
[14] = short-term, duration: 3 weeks, inhalation, M/F, Alpk:Albino, Whole Body: Body Weight Change + Whole Body: Clinical Observations
[15] = short-term, duration: 28 days, oral, gavage, F, Sprague-Dawley, Liver: Liver Weight, Absolute + Liver: Liver Weight, Relative + Thyroid: Thyroid Gland Weight, Relative + Whole Body: Body Weight, Absolute…
[16] = short-term, duration: 28 days, oral, gavage, F, Sprague-Dawley, Pituitary: Thyroid stimulating hormone (TSH) + Thyroid: Thyroxine (T4), Free (Free T4)
[17] = short-term, duration: 28 days, oral, gavage, M, Sprague-Dawley, Epididymis: Epididymis Weight, Absolute + Epididymis: Epididymis Weight, Relative + Liver: Liver Weight, Relative + Liver: Liver, Abnormal …
[18] = short-term, duration: 28 days, oral, gavage, M, Sprague-Dawley, Epididymis: Epididymis, Abnormal Size + Pituitary: Thyroid stimulating hormone (TSH) + Prostate: Prostate, Abnormal Size + Seminal Vesicles…
[19] = short-term, duration: 3 days, injection, subcutaneous, F, Crj:CD, uterus: uterine dry weight (absolute)
[20] = short-term, duration: 3 days, injection, subcutaneous, F, Sprague-Dawley, uterus: absolute blotted uterine weight
[21] = short-term, duration: 10 days, oral, gavage, M, BrlHan:WIST, body weight
[22] = short-term, duration: 10 days, oral, gavage, M, BrlHan:WIST, male accessory sex gland: BC/LA weight (relative)
[23] = short-term, duration: 10 days, oral, gavage, M, BrlHan:WIST, male accessory sex gland: relative bulbourethral gland weight in the presence of TP + male accessory sex gland: relative seminal vesicle …
[24] = short-term, duration: 10 days, oral, gavage, M, BrlHan:WIST, male accessory sex gland: relative ventral prostate weight in the presence of TP

NEL (reproduction developmental, duration: 9 days, inhalation, F, Crl:CD(SD) BR, generation: P0, P0: Liver: Liver Weight, Unspecified + P0: Ovary: Corpora Lutea + P0: Uterus: Implantation + P0: Uterus: Resorptions, Early + P0: Uterus: …): 704000 mg/m3 and 705000 mg/m3
NEL (short-term, duration: 4 weeks, inhalation, F, Wistar, Adrenal: Adrenal Gland Weight, Absolute + Adrenal: Adrenal Gland Weight, Relative + Blood: Partial Thromboplastin Time (PTT) + Blood: …): 101000 mg/m3
LEL [3]: 101000 mg/m3
NEL [3]: 20100 mg/m3
NEL (short-term, duration: 4 weeks, inhalation, M, Wistar, Adrenal: Adrenal Gland Weight, Absolute + Adrenal: Adrenal Gland Weight, Relative + Blood: Prothrombin Time (PT) + Kidney: Kidney Weight, …): 101000 mg/m3
LEL [4]: 101000 mg/m3
NEL [4]: 20100 mg/m3
LEL [5]: 30600 mg/m3
NEL [5]: 10100 mg/m3
NEL (subchronic, duration: 90 days, inhalation, M/F, RccHan (Wist), Blood: Activated Partial Thromboplastin Time (APTT) + Blood: Basophils + Blood: Calcium (CA), Blood + Blood: Chloride (CL), Blood + Blood: …): 103000 mg/m3
LEL [9]: 103000 mg/m3
NEL [9]: 30600 mg/m3
SMILES: C=CC(F)(F)C(F)(F)C(F)(F)C(F)(F)F [3,3,4,4,5,5,6,6,6-Nonafluorohexene]
NEL (developmental, duration: 9 days, inhalation, M/F, Crl:CD(SD) BR, generation: F1, F1: Uterus: Fetuses, Dead + F1: Uterus: Fetuses, Live + F1: Whole Body: Body Weight, Fetal + F1: Whole Body: External Abnormalities + F1: …): 704000 mg/m3 and 705000 mg/m3
LOAEL (developmental, duration: 9 days, inhalation, Sprague-Dawley, generation: F1, F1: Developmental: Skeleton: Skeletal Malformation + F1: Developmental: Skeleton: Skeletal Ossification Variations + F1: Developmental: Soft…): 705000 mg/m3 and 704000 mg/m3
NOAEL (developmental, duration: 9 days, inhalation, Sprague-Dawley, generation: F1, F1: Developmental: Whole Body: External Abnormalities): 70000 mg/m3
LEL [1]: 704000 mg/m3 and 705000 mg/m3
NEL [1]: 10100 mg/m3
LOAEL (reproduction developmental, duration: 9 days, inhalation, F, Sprague-Dawley, generation: P0, P0: Developmental: Uterus: Implantation + P0: Developmental: Uterus: Resorptions, Early + P0: Developmental: Uterus: Resorptions, Late + P0…): 705000 mg/m3 and 704000 mg/m3
LOAEL [2]: 705000 mg/m3 and 704000 mg/m3
NOAEL [2]: 10100 mg/m3
NEL (subchronic, duration: 90 days, inhalation, F, RccHan (Wist), Blood: White Blood Cell (WBC) + Whole Body: Body Weight Change): 103000 mg/m3
NOAEL (subchronic, duration: 90 days, inhalation, F, Wistar, General Toxicity: Whole Body: Body Weight Change): 103000 mg/m3
LOAEL [6]: 30600 mg/m3
NOAEL [6]: 10100 mg/m3
LOAEL [7]: 30600 mg/m3
NOAEL [7]: 10100 mg/m3
LOAEL (subchronic, duration: 90 days, inhalation, M/F, Wistar, Endocrine: Blood: Glucose (GLU) + Endocrine: Blood: Triglycerides (TRIG) + Endocrine: Serum: Cholesterol (CHOL), Total + General Toxicity: …): 30600 mg/m3
LOAEL [8]: 30600 mg/m3
NOAEL [8]: 10100 mg/m3
NEL (subchronic, duration: 90 days, inhalation, M, RccHan (Wist), Blood: Large Unstained Cells + Whole Body: Body Weight Change): 103000 mg/m3
NOAEL (subchronic, duration: 90 days, inhalation, M, Wistar, General Toxicity: Whole Body: Body Weight Change): 103000 mg/m3
LOAEL [10]: 30600 mg/m3
NOAEL [10]: 10100 mg/m3
LOAEL [11]: 30600 mg/m3
NOAEL [11]: 10100 mg/m3

NEL (short-term, duration: 3 weeks, inhalation, F, Alpk:Albino, Multi-organ: Uterus and Gonad (Unspecified) Histopathology): 54400 mg/m3
NEL (short-term, duration: 3 weeks, inhalation, M/F, Alpk:Albino, Blood: Potassium (K), Blood + Blood: Sodium (Na), Blood + Heart: Heart Histopathology + Kidney: Glucose (GLU), Urine + Kidney: Protein, …): 54400 mg/m3
NEL (short-term, duration: 3 weeks, inhalation, M, Alpk:Albino, Multi-organ: Epididymis and Gonad (Unspecified) Histopathology): 54400 mg/m3
SMILES: FC(F)=C(F)OC(F)(F)C(F)(F)C(F)(F)F [Perfluoropropyl trifluorovinyl ether]
LOAEL (reproduction developmental, duration: 28 days, inhalation, M, Sprague-Dawley, generation: P0, P0: Cardiovascular: Aorta: Aorta Histopathology + P0: Cardiovascular: Heart: Heart Histopathology + P0: Cardiovascular: Heart: Heart Weight…): 43900 mg/m3
LOAEL [12]: 43900 mg/m3
NOAEL [12]: 10900 mg/m3
LOAEL (reproduction developmental, duration: 50 days, inhalation, F, Sprague-Dawley, generation: P0, P0: Cardiovascular: Aorta: Aorta Histopathology + P0: Cardiovascular: Heart: Heart Histopathology + P0: Cardiovascular: Heart: Heart Weight…): 43900 mg/m3
LOAEL [13]: 43900 mg/m3
NOAEL [13]: 10900 mg/m3
LEL [14]: 54400 mg/m3
NEL [14]: 27200 mg/m3

SMILES: FC(F)(I)C(F)(F)C(F)(F)C(F)(F)I [Perfluoro-1,4-diiodobutane]
LOAEL [15]: 30 mg/kg-day
NOAEL [15]: 10 mg/kg-day
NOAEL (short-term, duration: 28 days, oral, gavage, F, Sprague-Dawley, Liver: Liver, Abnormal Area(s) + Liver: Liver, Abnormal Shape + Multi-organ: Follicle stimulating hormone (FSH) + Multi-organ: Luteinizing …): 30 mg/kg-day
LOAEL [16]: 10 mg/kg-day
NOAEL [16]: 3 mg/kg-day
LOAEL [17]: 30 mg/kg-day
NOAEL [17]: 10 mg/kg-day
LOAEL [18]: 10 mg/kg-day
NOAEL [18]: 3 mg/kg-day
NOAEL (short-term, duration: 28 days, oral, gavage, M, Sprague-Dawley, Liver: Liver Weight, Absolute + Liver: Liver, Abnormal Area(s) + Liver: Liver, Abnormal Shape + Liver: Liver, Abnormal Size + Multi-organ: …): 30 mg/kg-day
LOAEL (short-term, duration: 28 days, oral, gavage, M, Sprague-Dawley, Thyroid: Triiodothyronine, Free (Free T3)): 1 mg/kg-day

SMILES: CCC(C)(c1ccc(O)cc1)c1ccc(O)cc1 [Bisphenol B]
LOEL [19]: 200 mg/kg-day
NOEL [19]: 20 mg/kg-day
LOEL [20]: 200 mg/kg-day
NOEL [20]: 20 mg/kg-day
LOEL [21]: 600 mg/kg-day
NOEL [21]: 200 mg/kg-day
NOEL (short-term, duration: 10 days, oral, gavage, M, BrlHan:WIST, body weight in the presence of TP + body weight the absence of TP + male accessory sex gland: relative bulbourethral gland weight in the …): 600 mg/kg-day
LOEL [22]: 200 mg/kg-day
NOEL [22]: 50 mg/kg-day
NOEL (short-term, duration: 10 days, oral, gavage, M, BrlHan:WIST, male accessory sex gland: Cowper's gland weight (relative) + male accessory sex gland: glans penis weight (relative) + male accessory sex …): 600 mg/kg-day
LOEL [23]: 600 mg/kg-day
NOEL [23]: 200 mg/kg-day
LOEL [24]: 200 mg/kg-day
NOEL [24]: 50 mg/kg-day
